The test system of this series is HEK293T cells. Kind of series: Cytotoxicity assay (CCK-8). The following applies: 24 h; for Cytotoxicity at 50 μM (in words): CCK-8, n = 5, compared with 0 μM; for Cytotoxicity within the concentration range detected (in words): peptide 1-50 μM, CCK-8, OD450, n = 5. In kind it is cell-based. On the procedure: HEK293T cells were cultured in DMEM (10% FBS, 1% penicillin–streptomycin solution) in a 37 °C, 5% CO2 cell culture incubator until reaching the logarithmic growth phasein. As previously described, cells were seeded into a 96-well plate at 100 μL per well and pre-incubated for 48 h. After removing the medium, 10 μL of antimicrobial peptide solutions (1, 2, 5, 10, 20, and 50 μM) were added to each well with five replicate wells per concentration. The HEK293T cells cultured with DMEM (0 μM peptide) constituted the untreated group and plates with no cells were as blank group. Plates were then cultured for 24 h. Subsequently, 10 μL of CCK-8 solution was added to each well and incubated for 3 h under the same conditions using the Cell Counting Kit-8 (CCK-8, K1018, APE×BIO, Technology LLC, Houston, TX, USA). Absorbance at 450 nm was measured using a microplate reader. Cell viability was calculated using the following formula: Cell viability (%) = [Treated group OD (450) − Blank group OD (450)]/[Untreated group OD (450) − Blank group OD (450)] × 100%.

Where a SMILES comes first, the peptide text is derived from it. A value given as a limit tells only on which side of the number the result lay.

As for `CC[C@H](C)[C@H](NC(=O)[C@H](CCCCN)NC(=O)[C@H](Cc1ccc(O)cc1)NC(=O)[C@H](CCCCN)NC(=O)[C@H](CCCCN)NC(=O)[C@H](Cc1ccccc1)NC(=O)[C@H](CCCNC(=N)N)NC(=O)[C@H](CC(N)=O)NC(=O)[C@H](CCSC)NC(=O)[C@@H](NC(=O)[C@H](CC(C)C)NC(=O)[C@H](Cc1ccc(O)cc1)NC(=O)[C@@H](NC(=O)[C@H](C)NC(=O)[C@H](CCCNC(=N)N)NC(=O)[C@H](CCSC)NC(=O)[C@H](CCCCN)NC(=O)[C@H](CCCCN)NC(=O)[C@H](C)NC(=O)[C@H](CCCNC(=N)N)NC(=O)[C@H](CCCNC(=N)N)NC(=O)[C@@H](N)CCCNC(=N)N)[C@@H](C)CC)[C@@H](C)CC)C(=O)O` [P4] (H-RRRAKKMRAIYLIMNRFKKYKI-OH; N-terminus and C-terminus assumed), the “Cytotoxicity at 50 μM (in words)” value is given as “significant cell death”. As for `CC(C)C[C@H](NC(=O)[C@@H](N)CC(C)C)C(=O)N[C@@H](CCCNC(=N)N)C(=O)N[C@@H](CCCNC(=N)N)C(=O)N[C@@H](CCCCN)C(=O)N[C@@H](Cc1ccccc1)C(=O)N[C@@H](Cc1ccccc1)C(=O)N[C@@H](Cc1ccccc1)C(=O)O` [S2] (H-LLRRKFFF-OH; N-terminus and C-terminus assumed), the “Cytotoxicity at 10 μM (in words)” value (10 μM, CCK-8, n = 5) was “significant cytotoxic effects”. Also, the Cell viability (at 10, 20 and 50 μM, CCK-8, n = 5) is listed as not above 75%. Regarding “FAKLLLRLPALR [P1, peptide … derived from Crassostrea gigas mucous proteins, selected by machine learning]”, the “Cytotoxicity within the concentration range detected (in words)” value is recorded as “no cytotoxicity”. Still for that read-out and setting: in the case of “KVWQRVKVKML [P3, peptide … derived from Crassostrea gigas mucous proteins, selected by machine learning]” it was “no cytotoxicity”. Consider LLFRRRLL [S1], for which the “Cytotoxicity at 50 μM (in words)” value is “significant cell death”. The same measure, in the same setting: in the case of “WKQIKFYVYNRILKKRK [P2, peptide … derived from Crassostrea gigas mucous proteins, selected by machine learning]” it was “significant cell death”.
